This passage reports EC50 results from patent US8143257B2, “Substituted phenols as active agents inhibiting VEGF production” (PTC Therapeutics, Inc., priority 2004, dated 2012).

A value given as a limit tells only on which side of the number the result lay.

The first experiment relates to hypoxia-inducible endogenous VEGF expression. The experiment can be described thus: Assay to evaluate effect on hypoxia-inducible endogenous VEGF expression (VEGF ELISA, HeLa cells). Format: cell-based. The note with it: HeLa cells cultured 24-48 hours under hypoxic conditions (1% O2, 5% CO2); VEGF in conditioned media by ELISA; read-out: ELISA EC50 (effective concentration required to lower the amount of VEGF translation by 50%). Here is the method: Assay to Evaluate Effect on Hypoxia-Inducible Endogenous VEGF Expression
The ability of the compounds of the invention to modulate hypoxia-inducible endogenous VEGF expression is analyzed as follows. VEGF protein levels are monitored by an ELISA assay (R&D Systems). Briefly, HeLa cells are cultured for 24-48 hours under hypoxic conditions (1% O2, 5% CO2, balanced with nitrogen) in the presence or absence of a compound of the invention. The conditioned media is then assayed by ELISA, and the concentration of VEGF is calculated from the standard ELISA curve of each assay.
A dose-response analysis is performed using the ELISA assay and conditions described above. A series of, e.g., seven different concentrations are analyzed. In parallel, a dose-response cytotoxicity assay is performed using Cell Titer Glo (Promega) under the same conditions as the ELISA to ensure that the inhibition of VEGF expression is not due to the cytotoxicity. Dose-response curves are plotted using percentage inhibition versus concentration of the compound, and EC50 and CC50 values are generated for each compound with the maximal inhibition set as 100% and the minimal inhibition as 0%.
The most preferred compounds of the invention are those with μM values of 3 or less.
Turning to `Cc1ccc2cc(OC(=O)N3CCCC3)ccc2n1` [Pyrrolidine-1-carboxylic acid 2-methyl-quinolin-6-yl ester], the EC50 was more than 30 µM.

Turning to `Cc1ccc2cc(OC(=O)N3CC(C)CC(C)C3)ccc2n1` (stereo not drawn) [3,5-Dimethyl-piperidine-1-carboxylic acid 2-methyl-quinolin-6-yl ester], the EC50 was more than 30 µM.

Still in this experiment, the particulars now being: Homo sapiens, HeLa, read-out: ELISA EC50 (effective concentration required to lower the amount of VEGF translation by 50%).
On to `CN(C(=O)Oc1ccc2ccccc2c1)c1ccccc1` [Methyl-phenyl-carbamic acid naphthalen-2-yl ester], for which the EC50 was more than 10 µM.

Take `CC1CCN(C(=O)Oc2ccccc2Br)CC1` [4-Methyl-piperidine-1-carboxylic acid 2-bromo-phenyl ester]: the EC50 is more than 30 µM. Take `CN1CCN(C(=O)Oc2ncc3ccccc3c2Cl)CC1` [4-Methyl-piperazine-1-carboxylic acid 4-chloro-isoquinolin-3-yl ester]: the EC50 is more than 10 µM. In the case of `CN(C(=O)Oc1ccc2cc(Br)ccc2c1)c1ccccc1` [Methyl-phenyl-carbamic acid 6-bromo-naphthalen-2-yl ester], the EC50 is more than 10 µM. Take `CC1CC(C)CN(C(=O)Oc2cc3ccccc3cn2)C1` (stereo not drawn) [3,5-Dimethyl-piperidine-1-carboxylic acid isoquinolin-3-yl ester]: the EC50 is more than 30 µM.

The experiment is the same for the next values; noted with them: Homo sapiens; HeLa cells cultured 24-48 hours under hypoxic conditions (1% O2, 5% CO2); VEGF in conditioned media by ELISA; read-out: ELISA EC50 (effective concentration required to lower the amount of VEGF translation by 50%).
Regarding `CC1CCN(C(=O)Oc2c(Cl)cc(Cl)cc2Cl)CC1` [4-Methyl-piperidine-1-carboxylic acid 2,4,6-trichloro-phenyl ester], the EC50 is more than 30 µM. `O=C(Oc1cc(Cl)c(Cl)cc1Cl)N1CCc2ccccc2C1` [3,4-Dihydro-1H-isoquinoline-2-carboxylic acid 2,4,5-trichloro-phenyl ester]: the EC50 is 18.7 µM. Still for that read-out and setting: to `O=C(Nc1ccc2ccccc2c1Br)N1CCN(c2ccccc2)CC1` [4-Phenyl-piperazine-1-carboxylic acid (1-bromo-naphthalen-2-yl)-amide] belongs more than 10 µM; to `CC1CCCC(C)N1C(=O)Oc1cc2ccccc2cn1` (stereo not drawn) [2,6-Dimethyl-piperidine-1-carboxylic acid isoquinolin-3-yl ester], more than 30 µM. Take `O=C(NCC1CCCCC1)Oc1ccc2ccccc2c1Br` [Cyclohexylmethyl-carbamic acid 1-bromo-naphthalen-2-yl ester]: the EC50 is more than 30 µM. As for `Cc1ccc2cc(OC(=O)N3CCc4ccccc4C3)ccc2n1` [3,4-Dihydro-1H-isoquinoline-2-carboxylic acid 2-methyl-quinolin-6-yl ester], the EC50 is more than 30 µM.

`Cc1ccc(OC(=O)N2CCCC2)c(Br)c1` [Pyrrolidine-1-carboxylic acid 2-bromo-4-methyl-phenyl ester]: the EC50 is more than 30 µM. Regarding `COc1ccc2ccc(OC(=O)N3CCN(c4ccc(Cl)cc4)CC3)c(Br)c2c1` [4-(4-Chloro-phenyl)-piperazine-1-carboxylic acid 1-bromo-7-methoxy-naphthalen-2-yl ester], the EC50 was more than 10 µM.

Turning to `Cc1ccc2cc(OC(=O)N3CCN(c4ccccc4)CC3)ccc2n1` [4-Phenyl-piperazine-1-carboxylic acid 2-methyl-quionolin-6-yl ester], the EC50 is more than 30 µM.

`O=C(Oc1cc(Cl)c(Cl)cc1Cl)N1CCCCC1` [Piperidine-1-carboxylic acid 2,4,5-trichloro-phenyl ester]: the EC50 was determined as 18.2 µM.

As to `CS(=O)(=O)Nc1c(OC(=O)N2CCN(c3ccccc3)CC2)ccc2ccccc12` [4-Phenyl-piperazine-1-carboxylic acid 1-methanesulfonylamino-naphthalen-2-yl ester], the EC50 was more than 5 µM. Regarding `CC1CC(C)CN(C(=O)Nc2ccc3ccccc3c2)C1` (stereo not drawn) [3,5-Dimethyl-piperidine-1-carboxylic acid naphthalen-2-ylamide], the EC50 was more than 10 µM. As to `O=C(Oc1ccc2cc(Br)ccc2c1Br)N1CCOCC1` [Morpholine-4-carboxylic acid 1,6-dibromo-naphthalen-2-yl ester], the EC50 is more than 30 µM. In the case of `O=C(Oc1cc2ccccc2cn1)N1CCN(c2ccccc2)CC1` [4-Phenyl-piperazine-1-carboxylic acid isoquinolin-3-yl ester], the EC50 is more than 30 µM.

Regarding `O=C(Oc1cc2ccccc2cn1)N1CCCc2ccccc21` [3,4-Dihydro-2H-quinoline-1-carboxylic acid isoquinolin-3-yl ester], the EC50 is more than 30 µM. As for `CC1CCN(C(=O)Oc2cc(Cl)c(Cl)cc2Cl)CC1` [4-Methyl-piperidine-1-carboxylic acid 2,4,5-trichloro-phenyl ester], the EC50 turned out to be 16.2 µM. On to `O=C(Oc1cc(Cl)c(Cl)cc1Cl)N1CCCc2ccccc21` [3,4-Dihydro-2H-quinoline-1-carboxylic acid 2,4,5-trichloro-phenyl ester], for which the EC50 is 11.2 µM. Consider `CS(=O)(=O)Nc1c(OC(=O)N2CCC(Cc3ccccc3)CC2)ccc2ccccc12` [4-Benzyl-piperidine-1-carboxylic acid 1-methanesulfonylamino-naphthalen-2-yl ester], for which the EC50 was more than 5 µM.

Take `O=C(Oc1ccc2cc(Br)ccc2c1Br)N1CCCCC1` [Piperidine-1-carboxylic acid 1,6-dibromo-naphthalen-2-yl ester]: the EC50 was more than 30 µM.

`O=C(Oc1ccccc1Br)N1CCCCC1` [Piperidine-1-carboxylic acid 2-bromo-phenyl ester]: the EC50 was more than 30 µM. Regarding `COc1ccc2ccc(OC(=O)N3CCN(c4ccccc4)CC3)c(Br)c2c1` [4-Phenyl-piperazine-1-carboxylic acid 1-bromo-7-methoxy-naphthalen-2-yl ester], the EC50 is more than 10 µM.

With `CS(=O)(=O)Nc1c(OC(=O)N2CCCCC2)ccc2ccccc12` [Piperidine-1-carboxylic acid 1-methanesulfonylamino-naphthalen-2-yl ester], the EC50 is more than 5 µM.

On to `CC1CC(C)CN(C(=O)Nc2ccc3ccccc3c2Br)C1` (stereo not drawn) [3,5-Dimethyl-piperidine-1-carboxylic acid (1-bromo-naphthalen-2-yl)-amide], for which the EC50 is more than 10 µM.

On to `O=C(Oc1ncc2ccccc2c1Cl)N1CCCCC1` [Piperidine-1-carboxylic acid 4-chloro-isoquinolin-3-yl ester], for which the EC50 came out at 2.22 µM. For `O=C(Oc1c(Cl)cc(Cl)cc1Cl)N1CCc2ccccc2C1` [3,4-Dihydro-1H-isoquinoline-2-carboxylic acid 2,4,6-trichloro-phenyl ester], the EC50 was more than 30 µM. Take `CC(=O)c1c(OC(=O)N2CCCC2)ccc2ccccc12` [Pyrrolidine-1-carboxylic acid 1-acetyl-naphthalen-2-yl ester]: the EC50 was more than 30 µM. Consider `CC1CC(C)CN(C(=O)Oc2ccc3ccccc3c2NS(C)(=O)=O)C1` (stereo not drawn) [3,5-Dimethyl-piperidine-1-carboxylic acid 1-methanesulfonylamino-naphthalen-2-yl ester], for which the EC50 was more than 5 µM. For `CC1CC(C)CN(C(=O)Nc2ccc3ccccc3c2Cl)C1` (stereo not drawn) [3,5-Dimethyl-piperidine-1-carboxylic acid (1-chloro-naphthalen-2-yl)-amide], the EC50 was more than 10 µM. Still for that read-out and setting: to `O=C(Nc1ccc2ccccc2c1Cl)N1CCCCC1` [Piperidine-1-carboxylic acid (1-chloro-naphthalen-2-yl)-amide] belongs more than 10 µM; to `CS(=O)(=O)Nc1c(OC(=O)N2CCC(C(O)(c3ccccc3)c3ccccc3)CC2)ccc2ccccc12` [4-(Hydroxy-diphenyl-methyl)-piperidine-1-carboxylic acid 1-methanesulfonylamino-naphthalen-2-yl ester], more than 5 µM.

Consider `CC1CCCC(C)N1C(=O)Oc1c(Cl)cc(Cl)cc1Cl` (stereo not drawn) [2,6-Dimethyl-piperidine-1-carboxylic acid 2,4,6-trichloro-phenyl ester], for which the EC50 was more than 30 µM. For the compound `CC1CCCCN1C(=O)Oc1ccc2ccccc2c1Br` (stereo not drawn) [2-Methyl-piperidine-1-carboxylic acid 1-bromo-naphthalen-2-yl ester], the EC50 stood at 0.687 µM.

In the case of `O=C(Nc1ccc2ccccc2c1Cl)N1CCN(c2ccccc2)CC1` [4-Phenyl-piperazine-1-carboxylic acid (1-chloro-naphthalen-2-yl)-amide], the EC50 is more than 10 µM. Regarding `CC1CC(C)CN(C(=O)Oc2ccc3ccccc3c2Br)C1` (stereo not drawn) [3,5-Dimethyl-piperidine-1-carboxylic acid 1-bromo-naphthalen-2-yl ester], the EC50 was 0.129 µM. Consider `O=C(Oc1ccc2cc(Br)ccc2c1)N1CCCCC1` [Piperidine-1-carboxylic acid 6-bromo-naphthalen-2-yl ester], for which the EC50 was more than 10 µM. On to `O=C(Oc1cc(Cl)c(Cl)cc1Cl)N1CCN(c2ccccc2)CC1` [4-Phenyl-piperazine-1-carboxylic acid 2,4,5-trichloro-phenyl ester], for which the EC50 is more than 30 µM. In the case of `O=C(Nc1ccc2ccccc2c1Cl)N1CCC(Cc2ccccc2)CC1` [4-Benzyl-piperidine-1-carboxylic acid (1-chloro-naphthalen-2-yl)-amide], the EC50 was more than 10 µM.

Consider `O=C(Oc1cc(Cl)c(Cl)cc1Cl)N1CCc2ccccc21` [2,3-Dihydro-indole-1-carboxylic acid 2,4,5-trichloro-phenyl ester], for which the EC50 is more than 30 µM.
